Read-outs that look alike come from different tables or passages of the source.
How the values were obtained:
H82 cells = experiment: cells; type: cell-based; details: Homo sapiens
Outline: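 After 6 days' compound treatment at 37 °C (final DMSO 0.1%, RPMI1640/10% FBS), viable H82 cells were quantified by ATP-dependent CellTiter-Glo luminescence. Remaining activity was calculated against DMSO and medium wells, and a sigmoidal fit gave IC50.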

AURKA = biological target: T1, AURKA (Homo sapiens, UniProt O14965); type: cell-based
T1 construct: endogenous in cells; host or cells: Jurkat cells
T1 sequence (O14965 1-403): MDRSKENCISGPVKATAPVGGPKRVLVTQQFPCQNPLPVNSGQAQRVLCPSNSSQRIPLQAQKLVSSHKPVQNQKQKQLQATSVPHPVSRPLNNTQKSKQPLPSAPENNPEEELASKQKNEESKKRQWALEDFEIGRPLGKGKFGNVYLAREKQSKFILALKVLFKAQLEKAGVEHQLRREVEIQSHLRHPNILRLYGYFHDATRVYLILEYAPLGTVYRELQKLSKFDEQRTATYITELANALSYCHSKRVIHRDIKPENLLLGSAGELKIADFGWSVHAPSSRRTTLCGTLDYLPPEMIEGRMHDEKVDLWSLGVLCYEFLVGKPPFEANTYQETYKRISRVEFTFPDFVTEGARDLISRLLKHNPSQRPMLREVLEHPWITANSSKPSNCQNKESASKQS
Outline: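 AURKA degradation read by western blot: band signal, fluorescent or chemiluminescent, curve-fitted to derive DC50. Cells were Jurkat, plated at 1×10^6 cells/500 µL with compound, then lysed and blotted onto nitrocellulose, primary antibody overnight at 4°C.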

[1] = NCI-H82, H82 cells, 4000 cells/well, CellTiter-Glo, read-out: IC50 in H82 Cells
[2] = 100 nM compound, Jurkat cells, 24 h, Table 2
[3] = 1 µM compound, Jurkat cells, 24 h, Table 2
[4] = NCI-H82, read-out: IC50 in H82 Cells

SMILES | IC50 (H82 cells; [1]) [nM] | Percentage of AURKA Degradation Induced by 100 nM Compound in Jurkat Cells (AURKA; [2]) | Percentage of AURKA Degradation Induced by 1 µM Compound in Jurkat Cells (AURKA; [3]) | IC50 (H82 cells; [4]) [nM] | Percentage of AURKA Degradation Induced by 100 nM Compound in Jurkat Cells (AURKA) | Percentage of AURKA Degradation Induced by 1 µM Compound in Jurkat Cells (AURKA)
COc1cccc(F)c1C1=NCc2cnc(Nc3ccc(N4CC(CN5CCN(c6ccc(N7CCC(=O)NC7=O)cn6)CC5)C4)cc3)nc2-c2ccc(Cl)cc21 [Compound A253] | < 1000 | +++ (Degradation > 70%) | +++ (Degradation > 70%) |  |  | 
O=C1CCN(c2ccc(N3CCC(OC4CN(c5ccc(Nc6ncc7c(n6)-c6ccc(Cl)cc6C(c6c(F)cccc6F)=NC7)cc5)C4)CC3)nc2)C(=O)N1 [Compound A254] | < 1000 | +++ (Degradation > 70%) | ++ (30% < Degradation ≤ 70%) |  |  | 
O=C1CCN(c2ccc(N3CCN(C(=O)N4CCN(C56CC(Nc7ncc8c(n7)-c7ccc(Cl)cc7C(c7c(F)cccc7F)=NC8)(C5)C6)CC4)CC3)nc2)C(=O)N1 [Compound A255] | < 1000 | ++ (30% < Degradation ≤ 70%) | ++ (30% < Degradation ≤ 70%) |  |  | 
COc1cc(Nc2ncc3c(n2)-c2ccc(Cl)cc2C(c2c(F)cccc2OC)=NC3)ccc1N1CCN(C2CCN(c3ccc(N4CCC(=O)NC4=O)cn3)CC2)CC1 [Compound A256] | < 1000 | +++ (Degradation > 70%) | +++ (Degradation > 70%) |  |  | 
O=C1CCN(c2ccc(N3CCN(C(=O)N4CCN(c5ccc(Nc6ncc7c(n6)-c6ccc(Cl)cc6C(c6c(F)cccc6F)=NC7)cc5)CC4)CC3)nc2)C(=O)N1 [Compound A258] | < 1000 | +++ (Degradation > 70%) | +++ (Degradation > 70%) |  |  | 
O=C1CCN(c2ccc(N3CCN(CC4(F)CN(c5ccc(Nc6ncc7c(n6)-c6ccc(Cl)cc6C(c6c(F)cccc6F)=NC7)cc5)C4)CC3)nc2)C(=O)N1 [Compound A259] | < 1000 | +++ (Degradation > 70%) | +++ (Degradation > 70%) |  |  | 
COc1cc(Nc2ncc3c(n2)-c2ccc(Cl)cc2C(c2c(F)cccc2OC)=NC3)ccc1N1CC(CN2CCN(c3ccc(N4CCC(=O)NC4=O)cn3)CC2)C1 [Compound A261] | < 1000 | +++ (Degradation > 70%) | +++ (Degradation > 70%) |  |  | 
O=C1CCN(c2ccc(N3CCC(N4CCN(c5ccc(Nc6ncc7c(n6)-c6ccc(Cl)cc6C(c6c(F)cccc6F)=NC7)cc5)CC4)C(F)(F)C3)nc2)C(=O)N1 (stereo not drawn) [Compound A263] |  | +++ (Degradation > 70%) | +++ (Degradation > 70%) | < 1000 |  | 
O=C1CCN(c2ccc(N3CCC(O)(CN4CCN(c5ccc(Nc6ncc7c(n6)-c6ccc(Cl)cc6C(c6c(F)cccc6F)=NC7)cc5)CC4)CC3)nc2)C(=O)N1 [Compound A264] | < 1000 | +++ (Degradation > 70%) | +++ (Degradation > 70%) |  |  | 
O=C1CCN(c2ccc(N3CCC4(CCN(C(=O)C56CC(Nc7ncc8c(n7)-c7ccc(Cl)cc7C(c7c(F)cccc7F)=NC8)(C5)C6)CC4)CC3)nc2)C(=O)N1 [Compound A265] | < 1000 | + (Degradation ≤ 30%) | + (Degradation ≤ 30%) |  |  | 
O=C1CCN(c2ccc(N3CC(N4CCN(Cc5ccc(Nc6ncc7c(n6)-c6ccc(Cl)cc6C(c6c(F)cccc6F)=NC7)cc5)C(=O)C4)C3)nc2)C(=O)N1 [Compound A267] |  |  |  | < 1000 | ++ (key: +: Degradation ≤ 30%; ++: 30% < Degradation ≤ 70%; +++: Degradation > 70%) | +++ (key: +: Degradation ≤ 30%; ++: 30% < Degradation ≤ 70%; +++: Degradation > 70%)
CP(C)(=O)c1ccc2c(c1)C(c1c(F)cccc1F)=NCc1cnc(Nc3ccc(N4CCN(C5CCN(c6ccc(N7CCC(=O)NC7=O)cn6)CC5)CC4=O)cc3)nc1-2 [Compound A268] | 1000 to 10000 | +++ (Degradation > 70%) | +++ (Degradation > 70%) |  |  | 
